The test system of the data set is CCRIS mutagenicity, Ames/micronucleus/aberration tests. As to the kind of experiment: CCRIS mutagenicity studies.
The mark [1] stands for this setting: Test System: AMES SALMONELLA TYPHIMURIUM, Strain/Indicator: TA100, Metabolic Activation: NONE, Method: STANDARD PLATE.

Active and inactive are the calls of the source. No rule for the calls is given here.

As to `O=[N+]([O-])c1ccc(Oc2ccc(Cl)cc2Cl)cc1`, the mutagenic call was “inactive; negative” (Test System: AMES SALMONELLA TYPHIMURIUM, Strain/Indicator: TA98, Metabolic Activation: S-9, Method: STANDARD PLATE); “active; positive” under setting [1]; “inactive; negative” (Test System: AMES SALMONELLA TYPHIMURIUM, Strain/Indicator: TA100, Metabolic Activation: S-9, Method: STANDARD PLATE); “active; positive” (Test System: AMES SALMONELLA TYPHIMURIUM, Strain/Indicator: TA100, Metabolic Activation: S-9 MIX, Method: STANDARD PLATE); “inactive; negative” (Test System: AMES SALMONELLA TYPHIMURIUM, Strain/Indicator: YG1021, Metabolic Activation: S-9, Method: STANDARD PLATE); “inactive; negative” (Test System: AMES SALMONELLA TYPHIMURIUM, Strain/Indicator: YG1024, Metabolic Activation: S-9, Method: STANDARD PLATE). For the same molecule, the mutagenic call by setting is: (Test System: AMES SALMONELLA TYPHIMURIUM, Strain/Indicator: YG1026, Metabolic Activation: S-9, Method: STANDARD PLATE) “active; positive”; (Test System: AMES SALMONELLA TYPHIMURIUM, Strain/Indicator: YG1029, Metabolic Activation: S-9, Method: STANDARD PLATE) “active; positive”; (Test System: E. COLI, Strain/Indicator: WP2 UVRA, Metabolic Activation: HAMSTER, LIVER, S-9, AROCLOR 1254, Method: STANDARD PLATE) “inactive; negative”; (Test System: E. COLI, Strain/Indicator: WP2 UVRA, Metabolic Activation: HAMSTER, LIVER, S-9, Method: STANDARD PLATE) “inactive; negative”; (Test System: E. COLI, Strain/Indicator: WP2 UVRA, Metabolic Activation: MOUSE, LIVER, S-9, AROCLOR 1254, Method: STANDARD PLATE) “inactive; negative”; (Test System: E. COLI, Strain/Indicator: WP2 UVRA, Metabolic Activation: MOUSE, LIVER, S-9, Method: STANDARD PLATE) “inactive; negative”. Further, the mutagenic call is “inactive; negative” (Test System: E. COLI, Strain/Indicator: WP2 UVRA, Metabolic Activation: NONE, Method: STANDARD PLATE); “inactive; negative” (Test System: E. COLI, Strain/Indicator: WP2 UVRA, Metabolic Activation: RAT, LIVER, S-9, AROCLOR 1254, Method: STANDARD PLATE); “inactive; negative” (Test System: E. COLI, Strain/Indicator: WP2 UVRA, Metabolic Activation: RAT, LIVER, S-9, Method: STANDARD PLATE); “inactive; negative” (Test System: MOUSE LYMPHOMA, Strain/Indicator: L5178Y (HPRT), Metabolic Activation: NONE, Method: SUSPENSION/PLATE); “inactive; negative” (Test System: MOUSE LYMPHOMA, Strain/Indicator: L5178Y (TK+/TK-), Metabolic Activation: NONE, Method: SUSPENSION/PLATE).

`CC(=O)N[C@@H](C(=O)N(CC(=O)O)N=O)C(C)C`: the mutagenic call was “active; positive” under setting [1]; “active; positive” (Test System: AMES SALMONELLA TYPHIMURIUM, Strain/Indicator: TA100, Metabolic Activation: RAT, LIVER, S-9, AROCLOR 1254, Method: STANDARD PLATE); “active; positive” (Test System: CHO/HGPRT, Strain/Indicator: CHO-K1-BH4, Metabolic Activation: NONE).

Turning to `Fc1ccc(Br)cc1`, the mutagenic call is “inconclusive” (Test System: Mouse lymphoma, Strain/Indicator: L5178Y (tk+/tk-), Metabolic Activation: None, Method: Suspension/plate) and “inconclusive” (Test System: Mouse lymphoma, Strain/Indicator: L5178Y (tk+/tk-), Metabolic Activation: Rat, Liver, S-9, Aroclor 1254, Method: Suspension/plate).

Source of the values: PubChem BioAssay AID1259407 (Chemical Carcinogenesis Research Information System (CCRIS), 2018).
